Test results published in US9856508B2, “Chemiluminescent compositions, methods, assays and kits for oxidative enzymes” (LIFE TECHNOLOGIES CORPORATION, priority 2010, dated 2018).

Legend:
2C19 and 2C18 isozymes = assay: Isozyme specificity of 1,2-dioxetane substrates, rhCYP microsomes, 2-step endpoint assay; format: biochemical, human; settings: dioxetane as enzyme substrate
Protocol: (§1) Assays were performed using the same conditions (25° C., 5 nM rhCyp, 10 μM substrate, 25 min endpoint assay, with isozyme-specific buffers, Luminoscan plate reader) but on different days.
Cytochrome P450 assays have been developed to determine the isozyme specificity of novel 1,2-dioxetane chemiluminescent CYP450 substrates. In these assays, a 1,2-dioxetane substrate that has been determined to be a good substrate for a specific CYP450 isozyme is screened against individual recombinant (human or other) CYP450 isozymes. The protocol follows the 2-Step Endpoint assay format described above (Example 2, Format 1). The assay can be performed using either assay conditions that mimic an inhibition assay (Example 1) using substrate concentrations near the known or predicted Km of the substrate with its known isozyme, or at concentrations designed for more sensitive enzyme detection which is generally above the Km. Assays can be performed in several different ways depending on the desired information. If one is seeking to find out if the dioxetane is a substrate for different CYP450 isozymes at the specific isozyme's preferred assay conditions, the assays should be performed using the buffer and assay conditions preferred by each specific isozyme (Format 1). If one wants to find out if the dioxetane substrate is selective for a given CYP450 isozyme at that isozyme's preferred assay conditions, the assay should be performed using only the assay conditions of the matched isozyme (Format 2). Assays use recombinant human (rh) CYP450 isozymes (final [5 or 10 nM]), NADPH Regeneration System (final [1×]) and Potassium Phosphate Buffer prepared in a 2× Master Mix. 50 μL of the Master Mix is added to the wells of a 96-well plate. 40 μL of water is added the rows of the plate containing the Master Mix. The reaction is started by addition of 10 μL of a 10× NADP+ (nicotinamide adenine dinucleotide phosphate) and 1,2-Dioxetane Substrate (final [1 to 10 μM]) mix to assay wells. The assays are incubated for either 25 min (Format 1) or at the specific assay time (see Example 48, Format 2). […]

CYP2C19 [1] = molecular target: T1, CYP2C19 (Homo sapiens, UniProt P33261); assay: as above; format: biochemical; settings: for specificity for the CYP2C19 isozyme: FIG. 4A/5A, rhCYP microsomes, 25° C., 25 min, 10 μM substrate, 5 nM rhCYP450, isozyme-preferred potassium phosphate buffer, pH 7.4; for activity from CYP2C19 under CYP2C19 assay conditions: dioxetane as enzyme substrate
T1 construct: purchased BD/Gentest (or other vendor) 456259; host or cells: recombinant human CYP microsomes
T1 sequence (P33261 whole entry): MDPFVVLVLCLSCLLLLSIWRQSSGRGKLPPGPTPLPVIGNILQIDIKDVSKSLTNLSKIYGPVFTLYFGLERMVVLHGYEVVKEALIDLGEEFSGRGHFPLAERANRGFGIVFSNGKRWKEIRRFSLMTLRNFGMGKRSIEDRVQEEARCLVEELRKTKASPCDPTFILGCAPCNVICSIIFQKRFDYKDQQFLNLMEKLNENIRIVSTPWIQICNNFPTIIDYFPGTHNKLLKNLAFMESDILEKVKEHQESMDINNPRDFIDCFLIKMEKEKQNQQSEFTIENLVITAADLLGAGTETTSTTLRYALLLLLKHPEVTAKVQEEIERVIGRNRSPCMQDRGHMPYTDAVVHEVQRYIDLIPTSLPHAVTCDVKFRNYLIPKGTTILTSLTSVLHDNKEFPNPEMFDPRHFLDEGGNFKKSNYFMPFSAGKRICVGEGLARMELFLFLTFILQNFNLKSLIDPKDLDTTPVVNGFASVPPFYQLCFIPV
Protocol: as §1
(§2) Cytochrome P450 assays have been developed to determine the isozyme specificity of novel 1,2-dioxetane chemiluminescent CYP450 substrates. In these assays, a 1,2-dioxetane substrate that has been determined to be a good substrate for a specific CYP450 isozyme is screened against individual recombinant (human or other) CYP450 isozymes. The protocol follows the 2-Step Endpoint assay format described above (Example 2, Format 1). The assay can be performed using either assay conditions that mimic an inhibition assay (Example 1) using substrate concentrations near the known or predicted Km of the substrate with its known isozyme, or at concentrations designed for more sensitive enzyme detection which is generally above the Km. Assays can be performed in several different ways depending on the desired information. If one is seeking to find out if the dioxetane is a substrate for different CYP450 isozymes at the specific isozyme's preferred assay conditions, the assays should be performed using the buffer and assay conditions preferred by each specific isozyme (Format 1). If one wants to find out if the dioxetane substrate is selective for a given CYP450 isozyme at that isozyme's preferred assay conditions, the assay should be performed using only the assay conditions of the matched isozyme (Format 2). Assays use recombinant human (rh) CYP450 isozymes (final [5 or 10 nM]), NADPH Regeneration System (final [1×]) and Potassium Phosphate Buffer prepared in a 2× Master Mix. 50 μL of the Master Mix is added to the wells of a 96-well plate. 40 μL of water is added the rows of the plate containing the Master Mix. The reaction is started by addition of 10 μL of a 10× NADP+ (nicotinamide adenine dinucleotide phosphate) and 1,2-Dioxetane Substrate (final [1 to 10 μM]) mix to assay wells. The assays are incubated for either 25 min (Format 1) or at the specific assay time (see Example 48, Format 2).
(§3) • (See FIGS. 3A, 4A, and 5A.) Materials: • rhCytochrome P450 Isozymes: • CYP3A4 (BD/Gentest, Cat #456202) (or other vendor) • CYP2C19 (BD/Gentest, Cat #456259) (or other vendor) • CYP2C9 (BD/Gentest, Cat #456258) (or other vendor) • CYP2D6 (BD/Gentest, Cat #456217) (or other vendor) • CYP1A2 (BD/Gentest, Cat #456203) (or other vendor) • Or Other CYP450 recombinant isozymes • 200 mM Potassium Phosphate Buffer, pH 7.4 • 100 mM Potassium Phosphate Buffer, pH 7.4 • 100× NADP+ • (10 mM NADP+ in 100 mM Potassium phosphate buffer, pH 7.4) • 100× Regeneration System • (333 mM Glucose-6-phosphate, 30 Units/mL Glucose-6-phosphate dehydrogenase in 100 mM Potassium Phosphate Buffer, pH 7.4) • 1,2-Dioxetane Substrates (in 100% Acetonitrile, water, or acetonitrile/water mixture) • 96 well white microplate • Accelerator II Protocol Overview: (See, FIG. 10). Assay Set-Up:
(§4) Contains: • NADP+: 100× stock is 10 mM NADP+ in 100 mM Potassium Phosphate Buffer, pH 7.4 • 100 μM Known 1,2-Dioxetane Substrate Assay Procedure: • 1. Thaw all reagents on ice, except substrates: warm-up to RT under aluminum foil (light sensitive) • 2. Prepare 2× Master Mixes in 2× reaction buffer (keep on ice).
(§5) • 3. Add 50 μL of the specific 2× Master Mix to the desired wells • 4. Add 40 μL of sterile water (H2O) to each well of the plate • 5. Cover plate with plate sealer and let the assay wells equilibrate to 25° C. or room temperature for a few minutes while you prepare the 10×NADP+/Substrate Mixture. • 6. Prepare 10× NADP+/Substrate Mixture immediately before use (light sensitive!)
(§6) • 100× NADP+: 10× (1× final) • H2O: to final volume. • Add substrate by trituration and vortex to allow for maximum substrate solubility in the aqueous mixture. • *The final organic solvent concentration in the assay should be less than 0.1% and preferably much less. • 7. […]

other CYP isozyme = assay: as above; format: biochemical, human; settings: FIG. 5A, 25° C., 25 min, 10 μM BZT-Me, 5 nM rhCYP450
Protocol: FIG. 5A and FIG. 5B compare CYP450 isozyme specificity of 1,2-dioxetane substrate BZT-Me in recombinant human microsomes (rhCYPs) and human liver microsomes. FIG. 5A is a graphic representation of isozyme specificity of BZT-Me in rhCYP microsomes. Assays were performed ate 25° C. for 25 min using 10 μM BZT-Me, 5 nM rhCYP450, and isozyme-preferred potassium phosphate buffer, pH 7.4. […] FIG. 5B is a graphic representation of isozyme specificity of BZT-Me in pooled human liver microsomes (HLMs). Assays were performed for 25 min at 25° C. using 20 μM BZT-Me and 50 mM potassium phosphate buffer, pH 7.4. Positive (2C19) and negative (3A4, 2D6, and microsome only) controls were performed using 5 nM rhCYP450 microsomes. Pooled HLMs or low 2C19 HLMs were assayed at 0.5, 0.25, 0.125, or 0.0625 mg/ml. Assays were performed with or without 2 μM ketoconazole to indicate CYP3A family specificity or 0.5 μM miconozole. All assays were performed using the 2-step assay method (Example 48, Format A).
Cytochrome P450 assays have been developed to determine the isozyme specificity of novel 1,2-dioxetane chemiluminescent CYP450 substrates. In these assays, a 1,2-dioxetane substrate that has been determined to be a good substrate for a specific CYP450 isozyme is screened against individual recombinant (human or other) CYP450 isozymes. […]

CYP3A family isozymes [2] = assay: as above; format: biochemical, human; settings: dioxetane as enzyme substrate
Protocol: as §1, §2, §3, §4, §5, §6

CYP3A family isozymes [3] = molecular target: T2, CYP3A family isozymes (Homo sapiens, UniProt P08684); assay: as above; format: biochemical; settings: FIG. 4A; rhCYP microsomes, 25° C., 25 min, 10 μM substrate, 5 nM rhCYP450, isozyme-preferred potassium phosphate buffer, pH 7.4
T2 construct: purchased BD/Gentest (CYP3A4 only; or other vendor) 456202 (CYP3A4); host or cells: recombinant human CYP microsomes
T2 sequence (P08684 whole entry): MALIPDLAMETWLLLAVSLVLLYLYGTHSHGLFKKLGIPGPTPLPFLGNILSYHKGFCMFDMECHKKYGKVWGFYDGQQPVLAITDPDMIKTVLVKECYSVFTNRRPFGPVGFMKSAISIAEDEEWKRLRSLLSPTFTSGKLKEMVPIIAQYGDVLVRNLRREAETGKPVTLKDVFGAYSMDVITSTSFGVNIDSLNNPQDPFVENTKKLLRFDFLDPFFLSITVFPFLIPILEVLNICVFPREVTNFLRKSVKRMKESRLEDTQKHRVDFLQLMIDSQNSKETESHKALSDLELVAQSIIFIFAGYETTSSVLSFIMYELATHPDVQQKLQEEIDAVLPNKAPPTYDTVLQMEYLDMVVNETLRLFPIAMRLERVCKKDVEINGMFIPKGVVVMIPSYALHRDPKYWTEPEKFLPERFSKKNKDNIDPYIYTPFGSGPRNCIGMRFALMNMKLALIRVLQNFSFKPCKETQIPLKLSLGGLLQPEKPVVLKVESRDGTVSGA
Protocol: as §1, §2, §3, §4, §5, §6

CYP2C19 [4] = assay: Isozyme specificity of AMPPD-Bn in pooled human liver microsomes (HLMs); format: biochemical; settings: FIG. 4B, 25 min, 25° C., 20 μM AMPPD-Bn, 100 mM potassium phosphate buffer, pH 7.4
Protocol: FIG. 4A and FIG. 4B compare CYP450 isozyme specificity of 1,2-dioxetane substrate AMPPD-Bn in recombinant human microsomes (rhCYPs) and human liver microsomes. FIG. 4A is a graphic representation of isozyme specificity of AMPPD-Bn in rhCYP microsomes. Assays were performed at 25° C. for 25 min using 10 μM AMPPD-Bn, 5 nM rhCYP450 and isozyme-preferred potassium phosphate buffer, pH 7.4. […] FIG. 4B is a graphic representation of isozyme specificity of AMPPD-Bn in pooled human liver microsomes (HLMs). Assays were performed for 25 min at 25° C. using 20 μM AMPPD-Bn and 100 mM potassium phosphate buffer, pH 7.4. Positive (3A4) and negative (2C19, 2D6 and microsome only) controls were performed using 5 nM rhCYP450 microsomes. Pooled HLMs were assayed at 0.5, 0.25, 0.125, or 0.0625 mg/ml. Assays were performed either with or without 2 μM ketoconazole to indicate CYP3A family specificity. […] All assays were performed using the 2-step assay method (Example 48, Format A).
The protocol follows the 2-Step endpoint assay format described in Example 48 (Format A). […] The assays are incubated for either 10 to 25 min before addition of Accelerator and reading of luminescent signal on a luminometer. For relative quantification, samples can be compared to a standard curve of known enzyme concentration, bearing in mind that recombinant enzyme can not fully compare to native enzyme. […]

CYP2C8 = molecular target: T3, CYP2C8 (Homo sapiens, UniProt P10632); assay: Isozyme specificity of 1,2-dioxetane substrates, rhCYP microsomes, 2-step endpoint assay; format: biochemical; settings: dioxetane as enzyme substrate
T3 construct: host or cells: recombinant human CYP microsomes
T3 sequence (P10632 1-490): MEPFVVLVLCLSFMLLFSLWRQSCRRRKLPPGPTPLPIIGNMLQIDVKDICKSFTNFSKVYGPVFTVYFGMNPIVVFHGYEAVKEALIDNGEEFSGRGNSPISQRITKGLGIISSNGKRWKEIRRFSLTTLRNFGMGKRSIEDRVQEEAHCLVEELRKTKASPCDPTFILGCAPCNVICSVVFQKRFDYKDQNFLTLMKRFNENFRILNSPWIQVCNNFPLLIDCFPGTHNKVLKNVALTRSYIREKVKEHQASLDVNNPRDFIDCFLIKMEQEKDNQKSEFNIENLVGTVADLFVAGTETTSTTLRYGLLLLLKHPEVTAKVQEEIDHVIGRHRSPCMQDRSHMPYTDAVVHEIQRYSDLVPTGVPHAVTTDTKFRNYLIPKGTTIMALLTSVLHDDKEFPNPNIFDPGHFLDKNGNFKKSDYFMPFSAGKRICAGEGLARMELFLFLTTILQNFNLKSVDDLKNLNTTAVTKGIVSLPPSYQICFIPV
Protocol: as §1, §2, §3, §4, §5, §6

COc1ccc2sc(C3(OC)OOC34C3CC5CC(C3)CC4C5)cc2c1Cl (stereo not drawn) [Cl-BZT-Me]
specificity for 2C19 and 2C18 isozymes (2C19 and 2C18 isozymes): strong specificity

CCOc1cc(C2(OC)OOC23C2CC4CC3CC(Cl)(C4)C2)ccc1Cl (stereo not drawn) [CDP-Star-Et, CDP-Star-ET]
specificity for 2C19 and 2C18 isozymes (2C19 and 2C18 isozymes): strong specificity

COc1ccc2sc(C3(OC)OOC34C3CC5CC(C3)CC4C5)cc2c1 (stereo not drawn) [BZT-Me]
specificity for the CYP2C19 isozyme (CYP2C19 [1]): strong specificity
specificity for 2C19 and 2C18 isozymes (2C19 and 2C18 isozymes): strong specificity
oxidation by other CYP isozyme (other CYP isozyme): also oxidized

CCOc1cccc(C2(OC)OOC23C2CC4CC3CC(OCC[N+](C)(CC)CC)(C4)C2)c1 (stereo not drawn) [Q+-Amino-Ad-Ph-OEt, Q^+-Amino-Ad-Ph-OEt dxt]
specificity for the CYP3A family isozymes (CYP3A family isozymes [2]): strong specificity

COC1(c2cccc(OCc3ccccc3)c2)OOC12C1CC3CC(C1)CC2C3 (stereo not drawn) [AMPPD-Bn]
specificity for the CYP2C19 isozyme (CYP2C19 [1]): strong specificity
activity from CYP2C19 under CYP2C19 assay conditions (CYP2C19 [1]): significant activity
specificity for CYP3A4 isozyme (CYP3A family isozymes [3]): strong specificity
specificity for the CYP3A family isozymes (CYP3A family isozymes [2]): strong specificity
contribution of CYP2C19 activity to AMPPD-Bn oxidation in HLMs (CYP2C19 [4]): does not significantly contribute

COc1cc(C2(OC)OOC23C2CC4CC3CC(Cl)(C4)C2)ccc1Cl (stereo not drawn) [CDP-Star-Me]
specificity for 2C19 and 2C18 isozymes (2C19 and 2C18 isozymes): strong specificity

CCOc1cccc(C2(OC)OOC23C2CC4CC3CC(OCCC(C(=O)[O-])C(=O)[O-])(C4)C2)c1.[Na+].[Na+] (stereo not drawn) [bis-CO2Na-Ad-Ph-OEt dxt]
specificity for CYP2C8 (CYP2C8): high specificity

COC1(c2ccc(Cl)c(OCc3ccccc3)c2)OOC12C1CC3CC2CC(Cl)(C3)C1 (stereo not drawn) [CDP-Star-Bn]
activity from CYP2C19 under CYP2C19 assay conditions (CYP2C19 [1]): significant activity
specificity for the CYP3A family isozymes (CYP3A family isozymes [2]): strong specificity
